{"source": "paper PMC11431997", "about": "“Baicalin Inhibits FIPV Infection In Vitro by Modulating the PI3K-AKT Pathway and Apoptosis Pathway” (International Journal of Molecular Sciences, 2024)", "key": {"[1]": {"test_system": "FIPV (BJ-01)", "assay": "Inhibitory effects of compounds on FIPV-infected cells (compound and FIPV added simultaneously, CCK-8)", "format": "cell-based, feline infectious peritonitis virus", "method": "According to previous methods, CRFK cells were seeded in 96-well cell culture plates at a density of 1 × 10^4 cells/well and cultured at 37 °C in 5% CO2 until the cell density was greater than 90%. After the cells were washed twice with PBS, 50 μL of test compound and 50 μL of FIPV were added to each well simultaneously (at the same time, a cell control group with only 100 μL of MM and a viral control group with only 100 μL of FIPV were added). There were 3 replicate wells for each compound and group. After 72 h of incubation at 37 °C and 5% CO2, the liquid in the plate was discarded, and the cells were washed twice with PBS. The MIR of the compounds to the virus was calculated according to the instructions of the Cell Counting Kit-8. Afterwards, the compounds with MIR > 50% were diluted to 8 concentrations with MM, and the above process was repeated. Then, the EC50 values of the compounds were calculated with GraphPad Prism 10."}, "[2]": {"test_system": "FIPV (BJ-01)", "assay": "Impact of the compound on FIPV replication (compound added after infection, CCK-8)", "format": "cell-based, feline infectious peritonitis virus", "method": "According to previous methods, CRFK cells were seeded in 96-well cell culture plates at a density of 1 × 10^4 cells/well and cultured at 37 °C in 5% CO2 until the cell density was greater than 90%. Then, the medium was discarded, and the cells were washed twice with PBS. FIPV was first added into 96-well cell culture plates at 100 μL/well then incubated at 37 °C and 5% CO2 for 1, 2, 4, 6, 8, 10, 12, and 14 h, respectively. After that, the viral solution was discarded and washed with PBS twice and then the compound was added at 100 μL/well and incubated at 37 °C and 5% CO2 (at the same time, a cell control group with only 100 μL of MM and a viral control group with only 100 μL of FIPV were added). There were 3 replicate wells for each compound and group. After the CPE of the viral control group reached more than 80%, the liquid in the culture plate was removed and washed twice with PBS. Afterwards, the IR of the compounds against the virus was computed according to the directions of the Cell Counting Kit-8."}, "[3]": {"test_system": "FIPV-infected CRFK cells", "assay": "FIPV-induced apoptosis, Annexin V-FITC/PI assay", "format": "cell-based, feline", "settings": "baicalin-treated FIPV-infected CRFK cells, 24 h after infection, p < 0.05", "method": "CRFK cells were seeded in 96-well cell culture plates at a density of 1 × 10^4 cells/well and cultured at 37 °C in 5% CO2 until the cell density was greater than 90%. After the cells were washed twice with PBS, 50 μL of test compound and 50 μL of FIPV were added to each well simultaneously (at the same time, a cell control group with only 100 μL of MM and a viral control group with only 100 μL of FIPV were added). Three replicate wells were used for each group. […] Then, apoptosis was detected according to the instructions of the Annexin V-FITC/PI Apoptosis Detection Kit (MCE, USA). The results were observed using a fluorescence inverted microscope, and the fluorescence intensity was analyzed using ImageJ."}, "[4]": {"test_system": "PI3K-AKT signaling pathway and apoptosis pathway", "assay": "4D-LFQ proteomics of FIPV-infected CRFK cells", "format": "cell-based, feline", "settings": "48 h", "text": "According to the methods of Section 4.6, post-infection cells were collected at the appropriate time of infection and then quickly frozen in liquid nitrogen. The cell control group was named the control group (Group C), the virus control group was named the FIPV group (Group F), the compound treatment group was named the treatment group (Group T), and each group contained three replicate samples. Afterwards, they were sent to Shanghai Applied Protein Technology Co., Ltd. (Shanghai, China) for 4D-LFQ proteomics analysis."}, "[5]": {"test_system": "PI3K-AKT signaling pathway and apoptosis pathway", "assay": "Western blot of key proteins in FIPV-infected CRFK cells", "format": "cell-based, feline", "settings": "treatment group vs FIPV group, p < 0.05", "method": "Based on the results of the above experiments, the cell precipitates were collected according to the method in Section 4.6 and grouped as described in Section 4.7. After infection, the cells were collected at the appropriate time of infection, and the proteins were extracted from the samples according to the instructions of a total protein extraction kit (strong) (Solarbio, Beijing, China). Afterwards, the protein concentration of the extracted samples was determined separately using a BCA Protein Quantification Kit (Vazyme, Nanjing, China), and all sample proteins were diluted to the same concentration using PBS. The diluted protein samples were mixed with NuPAGE LDS Sample Buffer (4×) (Invitrogen, Waltham, MA, USA) at a ratio of 1:4 and heated at 70 °C for 10 min to denature the proteins. After that, the denatured proteins were added to 10 wells of 12% sodium dodecyl sulfate-polyacrylamide gel electrophoresis (SDS-PAGE) (Vazyme, Nanjing, China) at 20 μg/well, after which the total proteins were separated on NuPAGE MES SDS Running Buffer (Invitrogen, CA, USA). After separation, proteins were transferred from the gel onto 0.45 μm polyvinylidene fluoride (PVDF) membranes (Millipore, Billerica, MA, USA) using WB Transfer Buffer (Solarbio, Beijing, China). After that, the PVDF membranes were blocked with 5% skim milk (Solarbio, Beijing, China) at room temperature for 2 h. At the end of the closure, the membranes were washed with TBST (6 times, each time for 5 min, as described below); then. the primary antibodies were added and incubated at 4 °C overnight. The next day, the PVDF membranes were washed with TBST, the primary antibodies were removed, and the secondary antibodies were added and incubated at room temperature for 2 h (the antibody information and dilutions are shown in Section 4.1.4). At the end of the incubation, the PVDF membranes were washed with TBST, after which the protein bands were exposed and imaged using a SuperPico ECL Chemiluminescence Kit (Vazyme, Nanjing, China) and an Al680 imaging system (GE, Boston, MA, USA). The gray values of the WB bands were analyzed using ImageJ 1.54f, and the relative expression was calculated using GAPDH as an internal reference protein."}, "[6]": {"settings": "treatment/FIPV comparison group"}}, "note": "Several values for one entry are separate records, joined by “and”; a condition that tells them apart may be missing. Identical values can stand only once.", "data": [{"smiles": "O=C(O)[C@H]1O[C@@H](Oc2cc3oc(-c4ccccc4)cc(=O)c3c(O)c2O)[C@H](O)[C@@H](O)[C@@H]1O", "note": "[Baicalin]", "values": [{"measurement": "EC50", "setting": "[1]; Alphacoronavirus 1, FIPV in CRFK cells, gradient dilution, 72 h, CCK-8", "value": 20.8, "unit": "µg/mL"}, {"measurement": "SI (CC50/EC50)", "setting": "[1]; FIPV, CRFK cells", "value": "> 3 and 5.5"}, {"measurement": "inhibition rate on FIPV (replication blocking)", "setting": "[2]; baicalin added after 10 h of infection", "value": "significantly reduced"}, {"measurement": "inhibition rate on FIPV (replication blocking)", "setting": "[2]; baicalin added within 8 h of FIPV infection of CRFK cells", "value": "more than 50%"}, {"measurement": "fluorescence intensity per unit area of cells (early apoptosis, green fluorescence)", "setting": "[3]", "value": "significantly lower"}, {"measurement": "AKT2 level (4D-LFQ)", "setting": "[4]; treatment group vs FIPV group", "value": "significantly upregulated"}, {"measurement": "AKT3 level (4D-LFQ)", "setting": "[4]; treatment group vs FIPV group", "value": "tended to increase"}, {"measurement": "EGFR level (4D-LFQ)", "setting": "[4]; treatment group vs FIPV group", "value": "significantly upregulated"}, {"measurement": "PIK3CA level (4D-LFQ)", "setting": "[4]; treatment group vs FIPV group", "value": "significantly upregulated"}, {"measurement": "BAX level (4D-LFQ)", "setting": "[4]; [6]", "value": "downregulated but not significant"}, {"measurement": "BCL2L level (4D-LFQ)", "setting": "[4]; [6]", "value": "upregulated but not significant"}, {"measurement": "CASP9 level (4D-LFQ)", "setting": "[4]; [6]", "value": "significantly downregulated"}, {"measurement": "Bax relative expression (WB, GAPDH reference)", "setting": "[5]", "value": "significantly downregulated"}, {"measurement": "Bcl-2/Bax relative expression (WB)", "setting": "[5]", "value": "significantly upregulated"}, {"measurement": "Bcl-2 relative expression (WB, GAPDH reference)", "setting": "[5]", "value": "significantly upregulated"}, {"measurement": "EGFR relative expression (WB, GAPDH reference)", "setting": "[5]", "value": "significantly upregulated"}, {"measurement": "PI3K relative expression (WB, GAPDH reference)", "setting": "[5]", "value": "significantly upregulated"}, {"measurement": "cleaved caspase 9 relative expression (WB, GAPDH reference)", "setting": "[5]", "value": "significantly downregulated"}]}]}
